Like-named read-outs stand apart in the source and are kept apart here.
Tests used:
recombinant human PAI-1 [1] = molecular target: T1, recombinant human PAI-1 (Homo sapiens, UniProt P05121); assay: Test Example 1: human PAI-1 inhibitory activity (tPA fluorogenic substrate, pH 7.5 Tris buffer); assay type: biochemical; settings: Tris buffer
T1 construct: purchased Molecular Innovations, Inc
Method: 50 mM Tris, 150 mM NaCl, 10 μg/ml BSA, 0.01% Tween80 (SIGMA-ALDRICH Corporation)

recombinant human PAI-1 [2] = molecular target: T1, recombinant human PAI-1; assay: Test Example 2: human PAI-1 inhibitory activity (tPA fluorogenic substrate, pH 7.4 HEPES buffer); assay type: biochemical
Method: 0.1 M HEPES, 0.1 M NaCl. 1 mM EDTA. 0.1% Polyethylene glycol 8,000 (Hampton Research Corporation),
2 mM Dimethyldecylphoshine oxide [Apo-10] (Fluka Corporation)

[3] = read-out: Inhibition Rate of PAI-1 Activity (%)
[4] = human PAI-1, compound concentration 0.1 μM
[5] = human PAI-1, compound concentration 0.3 μM
[6] = human PAI-1, compound concentration 1 μM
[7] = human PAI-1, compound concentration 3 μM

T1 sequence (P05121 24-402): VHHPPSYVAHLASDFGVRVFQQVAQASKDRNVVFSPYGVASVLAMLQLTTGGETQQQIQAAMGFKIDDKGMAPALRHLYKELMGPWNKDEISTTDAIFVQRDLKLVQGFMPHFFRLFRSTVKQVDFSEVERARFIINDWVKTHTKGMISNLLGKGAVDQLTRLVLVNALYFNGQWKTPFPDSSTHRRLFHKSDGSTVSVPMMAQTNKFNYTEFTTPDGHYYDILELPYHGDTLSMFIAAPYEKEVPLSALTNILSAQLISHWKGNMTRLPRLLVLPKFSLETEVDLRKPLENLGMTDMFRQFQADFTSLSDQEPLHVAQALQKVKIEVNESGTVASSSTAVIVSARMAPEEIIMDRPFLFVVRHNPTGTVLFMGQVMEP

| SMILES | Inhibition Rate of PAI-1 Activity (%) (recombinant human PAI-1 [1]; Compound Concentration 5 μM) | Inhibition Rate of PAI-1 Activity (%) (recombinant human PAI-1 [1]; Compound Concentration 10 μM) | Inhibition Rate of PAI-1 Activity (%) (recombinant human PAI-1 [1]; Compound Concentration 25 μM) | other results |
| --- | --- | --- | --- | --- |
| CC(C)(C)c1ccc(CN(C(=O)C(=O)O)c2ccc(Cl)cc2Oc2ccc(OC(F)(F)F)cc2)cc1 [Compound 191] | 74% | 92% | 87% |  |
| CC(C)(C)c1ccc(N(C(=O)C(=O)O)c2ccc(Oc3ccc(OC(F)(F)F)cc3)cc2)cc1 [Compound 165] | 27% | 64% | 96% |  |
| CC(C)(C)c1ccc(COc2ccc(Oc3ccc(OC(F)(F)F)cc3)cc2C=CC(=O)O)cc1 [Compound 95] | 28% | 77% | 96% |  |
| CC(C)(C)c1ccc(N(C(=O)C(=O)O)c2ccccc2-c2ccc(OC(F)(F)F)cc2)cc1 [Compound 157] | 25% | 56% | 96% |  |
| Cc1ccc(N(Cc2ccc(C(C)(C)C)cc2)C(=O)C(=O)O)cc1Oc1ccc(OC(F)(F)F)cc1 [Compound 187] | 75% | 92% | 88% |  |
| CCC(Oc1ccc(-c2ccc(OC(F)(F)F)cc2)cc1Oc1ccc(C(C)(C)C)cc1)C(=O)O (stereo not drawn) [Compound 114] | 64% | 87% | 95% |  |
| CC(C)(C)c1ccc(CN(C(=O)C(=O)O)c2ccc(-c3ccccc3OC(F)(F)F)cc2)cc1 [Compound 201] | 64% | 89% | 82% |  |
| CC(C)(C)c1ccc(CN(C(=O)C(=O)O)c2cc(Oc3ccc(OC(F)(F)F)cc3)cc(C(F)(F)F)c2)cc1 [Compound 175] | 66% | 94% | 87% |  |
| CC(C)(C)c1ccc(-c2ccc(Oc3ccc(-c4ccc(OC(F)(F)F)cc4)cc3CCC(=O)O)c(CCC(=O)O)c2)cc1 [Compound 541] | 77% | 93% | >99% |  |
| O=C(O)C(=O)N(Cc1ccc(OC(F)(F)F)cc1)c1ccc(-c2ccccc2)cc1 [Compound 183] |  | 11% | 29% |  |
| CC(C)(C)c1ccc(CN(C(=O)C(=O)O)c2ccccc2Oc2ccc(OC(F)(F)F)cc2)cc1 [Compound 153] | 20% | 54% | 93% |  |
| CC(C)(C)c1ccc(CN(C(=O)C(=O)O)c2ccc(Oc3ccc(OC(F)(F)F)cc3)cc2)cc1 [Compound 132] |  | 32% | 82% |  |
| Cc1ccc(-c2ccc(OC(F)(F)F)cc2)cc1N(Cc1ccc(C(C)(C)C)cc1)C(=O)C(=O)O [Compound 136] | 16% | 47% | 79% |  |
| CC(C)(C)c1ccc(-c2ccc(OCc3ccc(C(F)(F)F)cc3)c(CCC(=O)O)c2)cc1 [Compound 70] | 47% | 71% | 95% |  |
| CC(C)(C)CN(C(=O)C(=O)O)c1ccc(-c2ccc(OC(F)(F)F)cc2)cc1 [Compound 255] | 2% | 8% | 23% |  |
| CCCCCOc1ccc(N(CCCCc2ccccc2)C(=O)C(=O)O)cc1-c1ccc(OC(F)(F)F)cc1 [Compound 244] | 71% | 91% |  |  |
| CC(C)(C)c1ccc(-c2ccc(N(Cc3ccccc3)C(=O)C(=O)O)cc2)cc1 [Compound 156] | 10% | 25% | 67% |  |
| O=C(O)C(=O)N(CCCCc1ccccc1)c1ccc(N2CCOCC2)c(-c2ccc(OC(F)(F)F)cc2)c1 [Compound 243] | 42% | 64% | 89% |  |
| Cc1ccc(N(Cc2ccc(C(C)(C)C)cc2)C(=O)C(=O)O)cc1OCc1ccc(OC(F)(F)F)cc1 [Compound 625] | 59% | 92% | 91% |  |
| CCCCCN(C(=O)C(=O)O)c1ccc(-c2ccc(OC(F)(F)F)cc2)cc1 [Compound 254] | 3% | 9% | 31% |  |
| O=C(O)CCc1cc(-c2ccc(OC(F)(F)F)cc2)ccc1OCc1ccc(OC(F)(F)F)cc1 [Compound 62] | 29% | 62% | 99% |  |

| SMILES | Inhibition Rate of PAI-1 Activity (%) (recombinant human PAI-1 [1]; Compound Concentration 5 μM) | Inhibition Rate of PAI-1 Activity (%) (recombinant human PAI-1 [1]; Compound Concentration 10 μM) | Inhibition Rate of PAI-1 Activity (%) (recombinant human PAI-1 [1]; Compound Concentration 25 μM) | other results |
| --- | --- | --- | --- | --- |
| CC(C)(C)c1ccc(COc2cc(CCC(=O)O)cc(Oc3ccc(OC(F)(F)F)cc3)c2)cc1 [Compound 410] | 37% | 71% | 98% |  |
| CC(C)(C)c1ccc(COc2ccc(-c3ccc(OC(F)(F)F)cc3)cc2OCc2nnn[nH]2)cc1 [Compound 122] | 29% | 63% | 99% |  |
| CC(C)(Oc1ccc(-c2ccc(OC(F)(F)F)cc2)cc1Oc1ccc(C(C)(C)C)cc1)C(=O)O [Compound 110] | 37% | 51% | 83% |  |
| O=C(O)CCc1cc(-c2ccc(OC(F)(F)F)cc2)ccc1Oc1ccc(C(=O)O)cc1 [Compound 14] |  | 3% |  |  |
| Cc1cccc(CN(C(=O)C(=O)O)c2ccc(-c3ccc(OC(F)(F)F)cc3)cc2)c1 [Compound 125] | 15% | 31% |  |  |
| Cc1cc(N(C)C)c(-c2ccc(OC(F)(F)F)cc2)cc1N(CCCCc1ccccc1)C(=O)C(=O)O [Compound 246] | 79% | 96% |  |  |
| COc1ccc(-c2ccc(OCc3ccc(C(C)(C)C)cc3)c(CCC(=O)O)c2)cc1 [Compound 38] | 14% | 34% | 93% |  |
| CC(C)(C)c1ccc(COc2ccc(-c3ccc(OC(F)(F)F)cc3)cc2C=CC(=O)O)cc1 [Compound 4] | 84% | 78% |  |  |
| CC(C)(C)c1ccc(-c2ccc(OCc3ccc(OC(F)(F)F)cc3)c(CCC(=O)O)c2)cc1 [Compound 52] | 28% | 64% | 94% |  |
| CC(C)(C)c1ccc(COc2cc(-c3ccc(OC(F)(F)F)cc3)ccc2/C=C/C(=O)O)cc1 [Compound 75] | 25% | 53% | 91% |  |
| CC(C)(Nc1cc(-c2ccc(OC(F)(F)F)cc2)ccc1OCc1ccc(C(C)(C)C)cc1)C(=O)O [Compound 420] | 42% | 64% | 83% |  |
| CC(C)(C)c1ccc(COc2c(Cl)cc(-c3ccc(OC(F)(F)F)cc3)cc2CCC(=O)O)cc1 [Compound 92] | 25% | 63% | 97% |  |
| Cc1cc(C)cc(CN(C(=O)C(=O)O)c2ccc(-c3ccc(OC(F)(F)F)cc3)cc2)c1 [Compound 123] | 27% | 62% |  |  |
| COc1ccc(-c2ccc(OCc3ccc(C(C)(C)C)cc3)c(/C=C/C(=O)O)c2)cc1 [Compound 37] | 23% | 47% | 84% |  |
| O=C(O)C=Cc1cc(-c2ccc(OC(F)(F)F)cc2)ccc1Oc1ccc(OC(F)(F)F)cc1 [Compound 15] | 23% | 47% | 94% |  |
| CCCCCCCCCOc1cc(N(CCCCc2ccccc2)C(=O)C(=O)O)ccc1-c1ccc(OC(F)(F)F)cc1 [Compound 389] |  |  |  | IC50 (recombinant human PAI-1 [2]): < 100 nM; inhibition at 1 µM (recombinant human PAI-1 [2]; [3]): > 99%; inhibition at 3 µM (recombinant human PAI-1 [2]; [3]): > 99% |
| CC(C)(C)c1ccc(Oc2cc(-c3ccccc3OC(F)(F)F)ccc2OCC(=O)O)cc1 [Compound 456] |  |  |  | Inhibition Rate of PAI-1 Activity (%) (recombinant human PAI-1 [2]; [4]): 7%; Inhibition Rate of PAI-1 Activity (%) (recombinant human PAI-1 [2]; [5]): 13%; Inhibition Rate of PAI-1 Activity (%) (recombinant human PAI-1 [2]; [6]): 70%; Inhibition Rate of PAI-1 Activity (%) (recombinant human PAI-1 [2]; [7]): 98% |
| CC(C)(C)c1ccc(Oc2cc(-c3cccc(C(F)(F)F)c3)ccc2CCC(=O)O)cc1 [Compound 332] |  |  |  | IC50 (recombinant human PAI-1 [2]; human PAI-1, calculated from the inhibition rates): 1470 nM; inhibition at 3 µM (recombinant human PAI-1 [2]; [3]): > 99% |
| CC(C)(C)c1ccc(Oc2cc(-c3ccccc3OC(F)(F)F)ccc2/C=C/C(=O)O)cc1 [Compound 466] |  |  |  | Inhibition Rate of PAI-1 Activity (%) (recombinant human PAI-1 [2]; [4]): 4%; Inhibition Rate of PAI-1 Activity (%) (recombinant human PAI-1 [2]; [5]): 9%; Inhibition Rate of PAI-1 Activity (%) (recombinant human PAI-1 [2]; [6]): 88%; Inhibition Rate of PAI-1 Activity (%) (recombinant human PAI-1 [2]; [7]): >99% |
| COc1ccc(-c2ccc(OCC(=O)O)c(Oc3ccc(C(C)(C)C)cc3)c2)cc1 [Compound 445] |  |  |  | Inhibition Rate of PAI-1 Activity (%) (recombinant human PAI-1 [2]; [4]): 0%; Inhibition Rate of PAI-1 Activity (%) (recombinant human PAI-1 [2]; [5]): 1%; Inhibition Rate of PAI-1 Activity (%) (recombinant human PAI-1 [2]; [6]): 12%; Inhibition Rate of PAI-1 Activity (%) (recombinant human PAI-1 [2]; [7]): 50% |
| CC(C)(C)c1ccc(Oc2cc(-c3ccccc3OC(F)(F)F)ccc2CCC(=O)O)cc1 [Compound 467] |  |  |  | Inhibition Rate of PAI-1 Activity (%) (recombinant human PAI-1 [2]; [4]): 2%; Inhibition Rate of PAI-1 Activity (%) (recombinant human PAI-1 [2]; [5]): 6%; Inhibition Rate of PAI-1 Activity (%) (recombinant human PAI-1 [2]; [6]): 73%; Inhibition Rate of PAI-1 Activity (%) (recombinant human PAI-1 [2]; [7]): >99% |

From US8633245B2, “PAI-1 inhibitor” (Institute of Medicinal Molecular Design, Inc., priority 2008, dated 2014)
